Measured values: PubChem BioAssay AID248 (DTP/NCI, 2004)
Inconclusive results and toxic doses are left out. Rule as the data show it: active = T/C of 150% or more; inactive = T/C below 125%.

System: L1210 leukemia ip in BDF1 mice, survival T/C
Experiment: NCI In Vivo Anticancer Drug Screen. Data for tumor model L1210 Leukemia (intraperitoneal) in B6D2F1 (BDF1) mice
Details: higher = longer survival
Method in brief: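 Antitumor effect is assessed in tumor-bearing animals. Survival in the compound arm is compared with a vehicle-dosed control arm and expressed as their quotient.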

[1] = endpoint: mean survival time, dose: 100.0 mg/kg/injection, schedule: Q04DX003 (ip), vehicle: Klucel (hydroxypropylcellulose) (HPC)
[2] = endpoint: mean survival time, dose: 200.0 mg/kg/injection, schedule: Q04DX003 (ip), vehicle: Klucel (hydroxypropylcellulose) (HPC)
[3] = endpoint: mean survival time, dose: 400.0 mg/kg/injection, schedule: Q04DX003 (ip), vehicle: Klucel (hydroxypropylcellulose) (HPC)
[4] = endpoint: mean survival time, dose: 400.0 mg/kg/injection, schedule: Q01DX001 (ip), vehicle: carboxymethylcellulose (CMC)
[5] = endpoint: mean survival time, dose: 100.0 mg/kg/injection, schedule: Q01DX009 (ip), vehicle: saline with Tween-80
[6] = endpoint: mean survival time, dose: 100.0 mg/kg/injection, schedule: Q04DX003 (ip), vehicle: saline with Tween-80
[7] = endpoint: mean survival time, dose: 200.0 mg/kg/injection, schedule: Q01DX009 (ip), vehicle: saline with Tween-80
[8] = endpoint: mean survival time, dose: 200.0 mg/kg/injection, schedule: Q04DX003 (ip), vehicle: saline with Tween-80
[9] = endpoint: mean survival time, dose: 400.0 mg/kg/injection, schedule: Q01DX009 (ip), vehicle: saline with Tween-80
[10] = endpoint: mean survival time, dose: 400.0 mg/kg/injection, schedule: Q04DX003 (ip), vehicle: saline with Tween-80
[11] = endpoint: mean survival time, dose: 100.0 mg/kg/injection, schedule: Q01DX001 (ip), vehicle: carboxymethylcellulose (CMC)
[12] = endpoint: mean survival time, dose: 200.0 mg/kg/injection, schedule: Q01DX001 (ip), vehicle: carboxymethylcellulose (CMC)
[13] = endpoint: mean survival time, dose: 100.0 mg/kg/injection, schedule: Q01DX001 (ip), vehicle: saline
[14] = endpoint: mean survival time, dose: 200.0 mg/kg/injection, schedule: Q01DX001 (ip), vehicle: saline
[15] = endpoint: mean survival time, dose: 400.0 mg/kg/injection, schedule: Q01DX001 (ip), vehicle: saline
[16] = endpoint: mean survival time, dose: 100.0 mg/kg/injection, schedule: Q04DX003 (ip), vehicle: saline
[17] = endpoint: mean survival time, dose: 200.0 mg/kg/injection, schedule: Q04DX003 (ip), vehicle: saline
[18] = endpoint: mean survival time, dose: 400.0 mg/kg/injection, schedule: Q04DX003 (ip), vehicle: saline

Measured: T/C

CC[C@H]1CN2CCc3cc(OC)c(OC)cc3[C@@H]2C[C@@H]1C[C@H]1NCCc2c1[nH]c1ccc(O)cc21
inactive: endpoint: mean survival time, dose: 0.25 mg/kg/injection, schedule: Q01DX006 (ip), vehicle: saline 109 % of control | endpoint: mean survival time, dose: 0.5 mg/kg/injection, schedule: Q01DX006 (ip), vehicle: saline 117 % of control | endpoint: mean survival time, dose: 2.0 mg/kg/injection, schedule: Q01DX005 (ip), vehicle: saline 121 % of control | endpoint: mean survival time, dose: 4.0 mg/kg/injection, schedule: Q01DX005 (ip), vehicle: saline 108 % of control | endpoint: mean survival time, dose: 4.0 mg/kg/injection, schedule: Q04DX003 (ip), vehicle: saline 114 % of control | endpoint: mean survival time, dose: 125.0 micrograms/kg/injection, schedule: Q01DX009 (ip), vehicle: saline 108 % of control | endpoint: mean survival time, dose: 250.0 micrograms/kg/injection, schedule: Q01DX009 (ip), vehicle: saline 118 % of control | endpoint: mean survival time, dose: 500.0 micrograms/kg/injection, schedule: Q01DX009 (ip), vehicle: saline 120 % of control | endpoint: mean survival time, dose: 1000.0 micrograms/kg/injection, schedule: Q01DX009 (ip), vehicle: saline 109 % of control | endpoint: median survival time, dose: 1.0 mg/kg/injection, schedule: Q04DX003 (ip), vehicle: saline + alcohol 108 % of control | endpoint: median survival time, dose: 2.0 mg/kg/injection, schedule: Q04DX003 (ip), vehicle: saline + alcohol 118 % of control

Cc1cccc(NC(=O)Oc2ccc(Nc3ccccc3)cc2)c1
inactive: endpoint: mean survival time, dose: 100.0 mg/kg/injection, schedule: Q01DX009 (ip), vehicle: Klucel (hydroxypropylcellulose) (HPC) 96 % of control | endpoint: mean survival time, dose: 200.0 mg/kg/injection, schedule: Q01DX009 (ip), vehicle: Klucel (hydroxypropylcellulose) (HPC) 102 % of control | endpoint: mean survival time, dose: 400.0 mg/kg/injection, schedule: Q01DX009 (ip), vehicle: Klucel (hydroxypropylcellulose) (HPC) 98 % of control

CSc1ccc(C2CCCCC2OS(C)(=O)=O)cc1 (stereo not drawn)
inactive: [1] 95 % of control | [2] 92 % of control | [3] 95 % of control

COc1ccc(/C=C(/c2ccccc2)[N+](=O)[O-])cc1
inactive: endpoint: mean survival time, dose: 176.0 mg/kg/injection, schedule: Q01DX001 (ip), vehicle: carboxymethylcellulose (CMC) 102 % of control | endpoint: mean survival time, dose: 264.0 mg/kg/injection, schedule: Q01DX001 (ip), vehicle: carboxymethylcellulose (CMC) 89 % of control | [4] 89 % of control | endpoint: mean survival time, dose: 600.0 mg/kg/injection, schedule: Q01DX001 (ip), vehicle: carboxymethylcellulose (CMC) 89 % of control

O=C(O)C(c1cccs1)c1cccs1
inactive: [5] 102 % of control | [6] 102 % of control | [7] 88 % of control | [8] 92 % of control | [9] 105 % of control | [10] 103 % of control

Cc1[nH]c2ccccc2c1/C=C/c1c[nH]c2ccccc12
inactive: endpoint: mean survival time, dose: 50.0 mg/kg/injection, schedule: Q01DX001 (ip), vehicle: carboxymethylcellulose (CMC) 93 % of control | [11] 91 % of control | [12] 98 % of control | [4] 91 % of control

CC(=O)N(C=C(C#N)C#N)c1ccccc1
inactive: endpoint: mean survival time, dose: 100.0 mg/kg/injection, schedule: Q01DX001 (ip), vehicle: Klucel (hydroxypropylcellulose) (HPC) 104 % of control | [1] 108 % of control | endpoint: mean survival time, dose: 200.0 mg/kg/injection, schedule: Q01DX001 (ip), vehicle: Klucel (hydroxypropylcellulose) (HPC) 106 % of control | [2] 96 % of control | [3] 116 % of control

O=C(CS(=O)(=O)C1CCCCC1)C1CCCCC1
inactive: [6] 94 % of control | [8] 94 % of control | [10] 88 % of control

CCNC(=O)CCCC(=O)OC
inactive: [13] 94 % of control | [14] 103 % of control | [15] 97 % of control

O=C(N/N=C/c1ccccc1O)N/N=C/c1ccccc1O
inactive: endpoint: mean survival time, dose: 50.0 mg/kg/injection, schedule: Q04DX003 (ip), vehicle: Klucel (hydroxypropylcellulose) (HPC) 96 % of control | [1] 90 % of control | [2] 88 % of control

CCCOC(=O)N(C)c1ccccc1
inactive: endpoint: mean survival time, dose: 75.0 mg/kg/injection, schedule: Q04DX002 (ip), vehicle: Klucel (hydroxypropylcellulose) (HPC) 101 % of control | endpoint: mean survival time, dose: 150.0 mg/kg/injection, schedule: Q04DX002 (ip), vehicle: Klucel (hydroxypropylcellulose) (HPC) 101 % of control | endpoint: mean survival time, dose: 300.0 mg/kg/injection, schedule: Q04DX002 (ip), vehicle: Klucel (hydroxypropylcellulose) (HPC) 101 % of control

CCN(CC)CCN(C)C
inactive: endpoint: mean survival time, dose: 100.0 mg/kg/injection, schedule: Q01DX009 (ip), vehicle: saline 102 % of control | [16] 105 % of control | endpoint: mean survival time, dose: 200.0 mg/kg/injection, schedule: Q01DX009 (ip), vehicle: saline 107 % of control | [17] 97 % of control | [18] 97 % of control

CC1COCC(C)N1CCC(=O)Nc1ccc(S(=O)(=O)c2ccc(NC(=O)CCN3C(C)COCC3C)cc2)cc1 (stereo not drawn)
inactive: [11] 107 % of control | [12] 104 % of control | [4] 101 % of control

COP(N)(=S)OC
inactive: endpoint: mean survival time, dose: 75.0 mg/kg/injection, schedule: Q01DX001 (ip), vehicle: saline 101 % of control | endpoint: mean survival time, dose: 150.0 mg/kg/injection, schedule: Q01DX001 (ip), vehicle: saline 98 % of control | endpoint: mean survival time, dose: 300.0 mg/kg/injection, schedule: Q01DX001 (ip), vehicle: saline 104 % of control

O=C(O)CC(Nc1ccc([N+](=O)[O-])cc1[N+](=O)[O-])C(=O)O (stereo not drawn)
inactive: [16] 96 % of control | [17] 100 % of control | [18] 120 % of control

CC1(C)CC(=NNC(N)=S)CC(C)(C)N1O
inactive: endpoint: mean survival time, dose: 25.0 mg/kg/injection, schedule: Q04DX002 (ip), vehicle: saline 102 % of control | endpoint: mean survival time, dose: 50.0 mg/kg/injection, schedule: Q04DX002 (ip), vehicle: saline with Tween-80 93 % of control | endpoint: mean survival time, dose: 50.0 mg/kg/injection, schedule: Q04DX002 (ip), vehicle: saline 94 % of control | endpoint: mean survival time, dose: 100.0 mg/kg/injection, schedule: Q04DX002 (ip), vehicle: saline with Tween-80 101 % of control

F[Si](c1cccc2ccccc12)(c1cccc2ccccc12)c1cccc2ccccc12
inactive: [5] 93 % of control | [6] 92 % of control | [7] 87 % of control | [8] 90 % of control | [9] 103 % of control | [10] 97 % of control

O=C(Nc1ccccc1C(=O)NC1CCCC1)NC1CCCC1
inactive: [1] 89 % of control | [2] 94 % of control

CC(C)(C)C(Br)C(=O)Nc1ccccc1 (stereo not drawn)
inactive: [13] 104 % of control | [14] 102 % of control | [15] 102 % of control

COC(=O)c1nc2ccc([N+](=O)[O-])cc2n1O
inactive: [13] 101 % of control | [14] 93 % of control | [15] 96 % of control

O=C(O)CCN1C/C(=C\c2ccccc2)C(=O)C1=O
inactive: [16] 101 % of control | [17] 101 % of control | [18] 101 % of control

CC(=O)c1ccc(OCc2ccccc2)cc1OCC(O)CN1CCN(c2ccc(C)c(C)c2)CC1 (stereo not drawn)
inactive: [6] 97 % of control | [8] 95 % of control | [10] 92 % of control

CCOC(=O)C(O)c1cccc(OC)c1 (stereo not drawn)
inactive: endpoint: mean survival time, dose: 100.0 mg/kg/injection, schedule: Q01DX009 (ip), vehicle: saline sonified 92 % of control | endpoint: mean survival time, dose: 100.0 mg/kg/injection, schedule: Q04DX003 (ip), vehicle: saline sonified 97 % of control | endpoint: mean survival time, dose: 200.0 mg/kg/injection, schedule: Q04DX003 (ip), vehicle: saline sonified 94 % of control | endpoint: mean survival time, dose: 400.0 mg/kg/injection, schedule: Q01DX009 (ip), vehicle: saline sonified 89 % of control | endpoint: mean survival time, dose: 400.0 mg/kg/injection, schedule: Q04DX003 (ip), vehicle: saline sonified 103 % of control

CCCCCCC[n+]1ccc(C(=O)c2ccccc2)cc1
inactive: endpoint: mean survival time, dose: 75.0 mg/kg/injection, schedule: Q01DX001 (ip), vehicle: carboxymethylcellulose (CMC) 96 % of control | endpoint: mean survival time, dose: 300.0 mg/kg/injection, schedule: Q01DX001 (ip), vehicle: carboxymethylcellulose (CMC) 105 % of control
